Where two headings read alike, the source gives them in different places. *1 amine or outer side, *2 acyl side, *3 side chain or, on linkers, in order; H or OH if unused. Where a SMILES comes first, the peptide text is derived from it. Bridges are numbered along the chain shown (N, C = ends). [ ]: non-standard residue; d: D form. oXylylene = c1ccc(C[*:2])c(C[*:1])c1; βAla = NCCC(=O)O
Key:
STAT1 [1] = target: T1, STAT1 (Homo sapiens, UniProt P42224); test: Grating-coupled interferometry (GCI) waveRAPID kinetics, immobilised full-length STAT1; assay type: binding; settings: for Kd: 20 mM HEPES pH 7.5, 300 mM NaCl, 0.01% Tween-20, 1:1 kinetic model, average of 2–4 technical replicates ± SD, SD; for kon at 0.5 µM: analyte 0.5 µM, read-out: ka
T1 construct: full-length STAT1 (Uniprot #P42224-1) was expressed in E. coli; His tag (pEXP-NHis vector) (N); made in house; host or cells: E. coli T7 Express
T1 sequence (P42224 1-750): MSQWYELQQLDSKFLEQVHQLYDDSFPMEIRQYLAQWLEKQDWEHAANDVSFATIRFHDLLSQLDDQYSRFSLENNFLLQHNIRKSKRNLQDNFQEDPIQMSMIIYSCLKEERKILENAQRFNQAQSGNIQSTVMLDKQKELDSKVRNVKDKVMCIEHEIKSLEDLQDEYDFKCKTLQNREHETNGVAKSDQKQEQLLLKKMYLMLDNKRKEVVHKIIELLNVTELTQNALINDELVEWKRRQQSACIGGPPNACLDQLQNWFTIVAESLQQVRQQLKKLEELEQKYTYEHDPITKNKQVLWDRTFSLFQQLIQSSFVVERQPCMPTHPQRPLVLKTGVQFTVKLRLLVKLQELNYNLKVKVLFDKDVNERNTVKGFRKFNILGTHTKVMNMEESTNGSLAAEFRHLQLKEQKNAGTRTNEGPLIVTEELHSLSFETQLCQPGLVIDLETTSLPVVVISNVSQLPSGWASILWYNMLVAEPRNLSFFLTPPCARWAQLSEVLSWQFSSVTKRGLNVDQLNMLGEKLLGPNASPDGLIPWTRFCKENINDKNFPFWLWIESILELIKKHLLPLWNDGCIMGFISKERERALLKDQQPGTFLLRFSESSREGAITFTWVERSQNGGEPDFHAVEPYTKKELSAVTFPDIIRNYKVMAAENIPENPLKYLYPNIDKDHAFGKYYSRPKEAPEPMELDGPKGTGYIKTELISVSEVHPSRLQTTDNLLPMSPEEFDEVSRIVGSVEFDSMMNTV
Excerpt: Understanding the molecular determinants of kinetic rate constants of binding (k a, k d) can aid the design of pharmacological probes with longer target engagement, which is beneficial for drug efficacy and decreased toxicity. , We characterized the binding kinetics of 018-derived macrocycles by using grating-coupled interferometry (GCI). We used waveRAPID, a regeneration-free kinetic binding assay that applies sequential analyte pulses of increasing duration onto a GCI biosensor surface with an immobilized target (Figures A, and S3,S4, Table S2).
(§1) Grating coupled interferometry (GCI)
(§2) GCI experiments were performed on a Creoptix WaveDELTA instrument (Malvern Panalytical). Full-length STAT1 or STAT3 were immobilised on a 4PCH chip (Malvern Panalytical #4PCH-03) to a density 2000-8000 pg/mm2 using EDC/NHS activation followed by amine coupling. Briefly, proteins (500 nM) were applied onto an activated chip in 10 mM MES pH 6.5, 20 mM NaCl, after which the chip surface was passivated with 1M ethanolamine, pH 8.0.
(§3) The kinetic measurements were perfor med using 20 mM HEPES pH 7.5, 300 mM NaCl, 0.01% Tween-20, 0.0005% DMSO as running buffer. Peptides were tested at 0.5 or 10 μM concentration using the waveRAPID kinetics experiment with the tight binder or intermediate binder mode, respectively.[4] Sensorgrams were fitted in the waveControl software (Malven Panalytical) using the 1:1 kinetic model. […]

STAT1 [2] = target: T1, STAT1; test: Isothermal titration calorimetry (ITC) of peptide binding to STAT1
Method: To determine affinities and thermodynamic profiles of binding, we performed isothermal titration calorimetry (ITC) experiments for peptides 1, 2, 3, 4, 7, and 8 (Figures A,B and S1,S2, Table S1). […] The experiments were repeated in two different buffer systems, TBST (50 mM Tris pH 8.0, 300 mM NaCl, 0.01% Tween-20) and PBST ([…], 150 mM NaCl, 0.01% Tween-20), to account for possible buffer protonation enthalpy artifacts. […]
Isothermal titration calorimetry (ITC)
ITC experiments were performed using a PEAQ ITC instrument (Malvern Panalytical) in either TBST (50 mM Tris pH 8.0, 300 mM NaCl, 0.5 mM TCEP, 0.01% Tween -20) or PBST (10 mM sodium phosphate pH 7.4, 150 mM NaCl, 0.01% Tween -20) as reaction buffers. STAT1 protein was buffer -exchanged into reaction buffer supplemented with 2% DMSO on a NAP -5 deslating column (Cytiv a #17085301) and its concentration was adjusted to 10 or 20 μM.
Peptides were diluted in reaction buffer from DMSO stocks to a matching 2% DMSO concentration. Peptide concentrations were adjusted to approximately 100-200 μM. ITC experiments were performed with STAT1 in the cell and peptides in the syringe at 25°C, with 750 RPM stirring, DP = 4 μcal/sec. 18 injections of 2 μl were performed over a 50 min titration.
Thermogram integra tion and isotherm fitting were performed using the PEAQ ITC analysis software (Malvern Panalytical ). Isotherms were fitted using a 1:1 binding model. Due to challenges in determining peptide concentrations with high accuracy , protein concentrations and stoichiometry (N=1.0) were kept constant during isotherm fitting, whereas peptide concentrations were allowed to vary. Fixing a single reactant concentration during fitting is acceptable given the sufficiently high C -values and isotherm curvature observed in the […]
Offset subtraction was implemented to remove injection heats.

STAT1 [3] = target: T1, STAT1; test: Fluorescence polarization competition assay with fluorescein-labelled pIFNGR1 docking site peptide probe; assay type: binding; settings: 10 nM fluorescein pIFNGR1 probe, STAT1 1.5 μM, 20 mM Tris pH 8.0, 300 mM NaCl, 0.1% Tween-20, 0.5 mM TCEP, 2.5% DMSO, room temperature; four parameter logistic fit; read-out: IC50 (FP competition, pIFNGR1 probe displacement)
STAT3 = target: T2, STAT3 (Homo sapiens, UniProt P40763); test: biochemical; assay type: binding
T2 construct: STAT3: the gene encoding full-length STAT3 was codon optimised for expression in; MBP (pEXP-MBP vector) (cleaved yes); His tag (IMAC capture, removed with the fusion by TEV and reverse IMAC) (cleaved yes); made in house; host or cells: E. coli T7 Express
Method: In such PPIs, the bulk of the binding energy contribution typically stems from backbone interactions, whereas binding specificity is fine-tuned by side-chain contacts. […] We evaluated the binding kinetics of peptides to full-length STAT3 using GCI.
as §1, §2, §3
GCI sensorgrams depicting RAPID kinetics measurements and fitted kinetic models for peptide binding to full-length STAT3 immobilised on a polycarboxylate hydrogel chip (4PCH). Peptides were applied at 0.5 or 10 μM concentration using the medium or tight binders pulse sequence. The peptides that show negligible Rmax values at 10 μM analyte concentration were classified as non-binding.
(1 picture or pasted object on this page, not shown here)

[4] = replicate 1 (first listed run, Table S2)
[5] = replicate 2 (second listed run, Table S2)
[6] = replicate 3 (third listed run, Table S2)
[7] = PBST pH 7.4 (NaPi, 150 mM NaCl, 0.01% Tween-20), average of 2–3 technical replicates, read-out: KD (ITC, summary Fig 2B)
[8] = TBST pH 8.0, average of 2–3 technical replicates, read-out: KD (ITC, summary Fig 2B)

T2 sequence (P40763 whole entry, species assumed, the tested form may be a part): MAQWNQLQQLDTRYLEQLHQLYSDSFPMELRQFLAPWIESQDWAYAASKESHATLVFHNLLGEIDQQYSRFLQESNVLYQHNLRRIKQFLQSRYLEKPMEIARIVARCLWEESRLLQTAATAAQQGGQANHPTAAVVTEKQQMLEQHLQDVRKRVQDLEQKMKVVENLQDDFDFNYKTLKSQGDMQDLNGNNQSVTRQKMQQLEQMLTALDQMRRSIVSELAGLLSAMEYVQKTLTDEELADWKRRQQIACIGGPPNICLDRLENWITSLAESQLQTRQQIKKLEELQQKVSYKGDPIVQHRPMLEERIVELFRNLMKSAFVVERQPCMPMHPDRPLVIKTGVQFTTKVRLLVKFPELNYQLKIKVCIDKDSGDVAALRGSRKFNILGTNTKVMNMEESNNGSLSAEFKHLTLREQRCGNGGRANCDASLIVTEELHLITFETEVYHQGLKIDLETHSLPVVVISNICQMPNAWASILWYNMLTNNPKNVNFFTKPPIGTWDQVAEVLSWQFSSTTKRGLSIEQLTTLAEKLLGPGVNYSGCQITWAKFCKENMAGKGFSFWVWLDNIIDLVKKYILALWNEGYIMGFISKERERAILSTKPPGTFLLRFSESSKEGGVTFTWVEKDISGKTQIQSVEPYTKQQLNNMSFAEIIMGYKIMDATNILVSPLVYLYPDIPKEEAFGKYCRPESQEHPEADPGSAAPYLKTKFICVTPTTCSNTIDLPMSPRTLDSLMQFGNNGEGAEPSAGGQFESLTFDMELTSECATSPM

Row | Structure (SMILES) | Kd (STAT1 [1]) [nM] | kon at 0.5 µM (STAT1 [1]; [4]) [M⁻¹ s⁻¹] | kon at 0.5 µM (STAT1 [1]; [5]) [M⁻¹ s⁻¹] | kon at 0.5 µM (STAT1 [1]; [6]) [M⁻¹ s⁻¹] | Kd (STAT1 [2]; [7]) [nM] | Kd (STAT1 [2]; TBST (50 mM Tris pH 8.0, 300 mM NaCl, 0.01% Tween-20), 25°C, 1:1 model, average of three technical replicates ± SD (text and Fig 2A), SD, read-out: KD (ITC)) [nM] | IC50 (STAT1 [3]) [nM] | ka (STAT3) [M⁻¹ s⁻¹] | Kd (STAT3; full-length STAT3 on 4PCH chip, average of technical replicates ± SD (Fig 3E), SD, read-out: STAT3 KD (GCI waveRAPID)) [nM] | kon (STAT3; read-out: ka) [M⁻¹ s⁻¹] | Kd (STAT1 [2]; [8]) [nM]
1 | CC[C@H](C)[C@@H]1NC(=O)[C@H](Cc2ccccc2)NC(=O)[C@H](C(C)C)NC(=O)[C@H](CO)NC(=O)[C@H](Cc2c[nH]c3ccccc23)NC(=O)[C@H](CCSC)NC(=O)CCNC(=O)CCNC(=O)[C@H]([C@@H](C)O)NC(=O)[C@H](Cc2ccc(O)cc2)NC(=O)[C@H]([C@@H](C)O)NC(=O)[C@H](CCCCN)NC(=O)[C@H](CO)NC(=O)CNC(=O)[C@H](CCCCN)NC(=O)[C@H](CC(N)=O)NC(=O)[C@H](CO)NC(=O)CNC(=O)[C@H](CC(=O)O)NC(=O)[C@H](Cc2c[nH]cn2)NC(=O)CNC(=O)[C@H](Cc2c[nH]cn2)NC1=O [Peptide 2] | 8.9 ± 1.9 | 216000 | 213000 | 321000 | 122 | 330 ± 20 | – | – | – | – | –
2 | CC[C@H](C)[C@@H]1NC(=O)[C@H](CS)NC(=O)[C@H](C(C)C)NC(=O)[C@H](CO)NC(=O)[C@H](Cc2c[nH]c3ccccc23)NC(=O)[C@H](CCSC)NC(=O)CCNC(=O)CCNC(=O)[C@H]([C@@H](C)O)NC(=O)[C@H](Cc2ccc(O)cc2)NC(=O)[C@H]([C@@H](C)O)NC(=O)[C@H](CCCCN)NC(=O)[C@H](CS)NC(=O)CNC(=O)[C@H](CCCCN)NC(=O)[C@H](CC(N)=O)NC(=O)[C@H](CO)NC(=O)CNC(=O)[C@H](CC(=O)O)NC(=O)[C@H](Cc2c[nH]cn2)NC(=O)CNC(=O)[C@H](Cc2c[nH]cn2)NC1=O [Peptide 3] (cyclo(CIHGHDGSNKGCKTYT[βAla][βAla]MWSV)) | 7.5 ± 0.5 | 261000 | 276000 | – | 55 | – | 1300 | 83900 | 9300 ± 453 | 81000 | 145
3 | CSCC[C@@H]1NC(=O)CCNC(=O)CCNC(=O)[C@H]([C@@H](C)O)NC(=O)[C@H](Cc2ccc(O)cc2)NC(=O)[C@H]([C@@H](C)O)NC(=O)[C@H](CCCCN)NC(=O)[C@H](CO)NC(=O)[C@H](CS)NC(=O)[C@H](CCCCN)NC(=O)[C@H](CC(N)=O)NC(=O)[C@H](CO)NC(=O)CNC(=O)[C@H](CC(=O)O)NC(=O)[C@H](Cc2c[nH]cn2)NC(=O)CNC(=O)[C@H](Cc2c[nH]cn2)NC(=O)[C@H](CS)NC(=O)[C@H](Cc2ccccc2)NC(=O)[C@H](C(C)C)NC(=O)[C@H](CO)NC(=O)[C@H](Cc2c[nH]c3ccccc23)NC1=O [Peptide 7] (cyclo(CHGHDGSNKCSKTYT[βAla][βAla]MWSVF)) | 96.9 ± 4 | 129000 | 131000 | 137000 | 114 | – | – | – | – | – | 1930
4 | CSCC[C@@H]1NC(=O)CCNC(=O)CCNC(=O)[C@H]([C@@H](C)O)NC(=O)[C@H](Cc2ccc(O)cc2)NC(=O)[C@H]([C@@H](C)O)NC(=O)[C@H](CCCCN)NC(=O)[C@H](CO)NC(=O)[C@@H]2CSCc3ccccc3CSC[C@H](NC(=O)[C@H](Cc3ccccc3)NC(=O)[C@H](C(C)C)NC(=O)[C@H](CO)NC(=O)[C@H](Cc3c[nH]c4ccccc34)NC1=O)C(=O)N[C@@H](Cc1c[nH]cn1)C(=O)NCC(=O)N[C@@H](Cc1c[nH]cn1)C(=O)N[C@@H](CC(=O)O)C(=O)NCC(=O)N[C@@H](CO)C(=O)N[C@@H](CC(N)=O)C(=O)N[C@@H](CCCCN)C(=O)N2 [Peptide 8] (cyclo(CHGHDGSNKCSKTYT[βAla][βAla]MWSVF); linker 1-10 via oXylylene) | 75.4 ± 0.8 | 87000 | 80000 | – | 247 | – | – | – | – | – | 436
5 | CC[C@H](C)[C@@H]1NC(=O)[C@@H](NC(=O)[C@@H](NC(=O)[C@H](CO)NC(=O)[C@H](Cc2c[nH]c3ccccc23)NC(=O)[C@H](CCSC)NC(C)=O)C(C)C)CSCc2ccccc2CSC[C@@H](C(=O)N[C@@H](CCCCN)C(=O)N[C@H](C(=O)N[C@@H](Cc2ccc(O)cc2)C(=O)N[C@H](C(N)=O)[C@@H](C)O)[C@@H](C)O)NC(=O)CNC(=O)[C@H](CCCCN)NC(=O)[C@H](CC(N)=O)NC(=O)[C@H](CO)NC(=O)CNC(=O)[C@H](CC(=O)O)NC(=O)[C@H](Cc2c[nH]cn2)NC(=O)CNC(=O)[C@H](Cc2c[nH]cn2)NC1=O [Peptide 9] (Ac-MWSVCIHGHDGSNKGCKTYT-NH2; linker 5-16 via oXylylene) | 1.5 ± 0.1 | 587000 | 570000 | 540000 | – | – | – | – | – | – | –

Source: article PMC12813973, “Consequences of Peptide Macrocyclization Revealed by Virus-Inspired β‑Hairpin Mimetics” (ACS Chemical Biology, 2025)
